{
  "source": "patent US7612104B2",
  "about": "“Bicyclic aryl-sulfonic acid [1,3,4]-thiadiazol-2-yl-amides, processes for their preparation, pharmaceutical compositions and methods for their use” (Sanofi-Aventis, priority 2005, dated 2009)",
  "origin": "cited, not measured here",
  "key": {"PPARdelta [1]": {"system": "PPARdelta", "settings": "diabetic animal model; cited from earlier work"}, "PPARdelta [2]": {"biological_target": "T1, PPARdelta (Macaca mulatta, UniProt I0FFS1)", "T1 construct": "host or cells: rhesus monkeys in vivo", "T1 sequence (I0FFS1 1-441)": "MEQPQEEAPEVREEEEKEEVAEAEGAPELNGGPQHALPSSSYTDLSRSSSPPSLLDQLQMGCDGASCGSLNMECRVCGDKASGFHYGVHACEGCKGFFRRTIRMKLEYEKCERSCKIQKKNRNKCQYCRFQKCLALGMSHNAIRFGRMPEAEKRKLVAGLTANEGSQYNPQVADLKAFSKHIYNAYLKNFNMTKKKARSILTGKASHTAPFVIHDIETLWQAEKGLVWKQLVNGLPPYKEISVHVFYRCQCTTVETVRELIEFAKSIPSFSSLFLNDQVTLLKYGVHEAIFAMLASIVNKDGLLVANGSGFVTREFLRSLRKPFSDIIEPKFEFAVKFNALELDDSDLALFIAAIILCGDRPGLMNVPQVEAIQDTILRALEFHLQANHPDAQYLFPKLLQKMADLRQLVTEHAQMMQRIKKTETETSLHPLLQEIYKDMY", "settings": "obese, insulin resistant rhesus monkeys; cited from earlier work"}, "PPARdelta/PPARalpha [3]": {"system": "PPARdelta/PPARalpha", "settings": "rhesus and cynomolgus monkeys; cited from earlier work"}, "PPARdelta/PPARalpha [4]": {"system": "PPARdelta/PPARalpha", "settings": "two weeks clinical trials in healthy volunteers; cited from earlier work"}},
  "note": "Where two headings read alike, the source gives them in different places.",
  "data": [
    {"smiles": "CCCc1c(OCCCOc2ccc(OCC(=O)O)cc2)ccc(C(C)=O)c1O", "note": "[Example L-165041]", "values": [
      {"measurement": "plasma cholesterol", "setting": "PPARdelta [1]", "value": "raises plasma cholesterol"}
    ]},
    {"smiles": "Cc1cc(SCc2sc(-c3ccc(C(F)(F)F)cc3)nc2C)ccc1OCC(=O)O", "note": "[GW501516]", "values": [
      {"measurement": "HDL-cholesterol", "setting": "PPARdelta [2]", "value": "raises"},
      {"measurement": "insulin levels", "setting": "PPARdelta [2]", "value": "decreases"},
      {"measurement": "plasma LDL-cholesterol", "setting": "PPARdelta [2]", "value": "decreases"},
      {"measurement": "triglycerides", "setting": "PPARdelta [2]", "value": "decreases"}
    ]},
    {"smiles": "CCCc1c(OCCCSc2nnc(SCC(=O)O)s2)ccc(C(C)=O)c1O", "note": "[YM-16638]", "values": [
      {"measurement": "plasma lipids", "setting": "PPARdelta/PPARalpha [3]", "value": "significantly lowers"},
      {"measurement": "plasma lipids", "setting": "PPARdelta/PPARalpha [4]", "value": "acts in a similar manner"}
    ]}
  ]
}
